Consider 20 compounds from article PMC8835841, “Novel NK1R-Targeted ^68Ga-/^177Lu-Radioconjugates with Potential Application against Glioblastoma Multiforme: Preliminary Exploration of Structure–Activity Relationships” (International Journal of Molecular Sciences, 2022).

A short description of one data set: physchem. In kind it is physicochemical. On the procedure: A lipophilicity study was also performed right after the SPE method purification and ethanol evaporation. For each DOTA radioconjugate, the lipophilicity value was estimated as the logarithm of the distribution coefficient (D) based on the ratio of the radioactivity of the organic phase to the radioactivity of the aqueous phase in the n-octanol/PBS (pH 7.40) system. Simultaneously, the stability of the studied radioconjugate during the experiment was verified through the HPLC analysis of the aqueous phase.
A solution of isolated radioconjugate (approximately 0.5 MBq for ^177Lu-radioconjugates or 5 MBq for ^68Ga-radioconjugates) in 500 µL of 0.1 M PBS buffer (pH 7.40) and 500 µL of n-octanol was vigorously stirred and centrifuged (13,500 rpm for 5 min) to separate the immiscible phases. Then, the radioactivity of samples from both phases were measured using a well-type NaI(Tl) detector. The distribution coefficient, D, was calculated dividing the radioactivity of the radioconjugate in the organic phase to that in the aqueous phase. Each experiment was performed in triplicate and averaged. In parallel, the aqueous phases were analysed by HPLC to confirm the stability of studied radioconjugate during the experiment period. The lipophilicity value of each radioconjugates was expressed as the logarithm of its D value.

The next data set has as its target T1, hNK1R (Homo sapiens, UniProt P25103).
T1 construct: expressed in transfected cells; host or cells: CHO-K1 (hNK1-CHO), gift from Dr. Attila Keresztes and Dr. John M. Streicher
Put plainly: Competitive radioligand binding assay, hNK1-CHO cell homogenates, [3H]-(Sar9,Met(O2)11)-Substance P. Conditions: for IC50: hNK1-CHO cell homogenates, mean of three independent experiments in duplicate unless stated, read-out: IC50 (Mean ± SD) hNK1R; for fold weaker hNK1R binding than parent compound: relative to L732,138 (1c). On the procedure: The CHO-K1 cells with a stable overexpression of the human NK1 receptor, denoted further on as hNK1-CHO cells, were obtained as a gift from Dr. Attila Keresztes and Dr. John M. Streicher. The cells were maintained in a humidified atmosphere with 5% CO2 at 37 °C, in Ham’s F12 medium (Corning, Corning, NY, USA) supplemented with 10% Foetal Bovine Serum (CytoGen, Wetzlar, Germany) and 400 μg/mL G418 (Corning, Corning, NY, USA).
When the cells reached approximately 90% confluence, they were harvested by treatment with 0.05% trypsin/EDTA (Corning, Corning, NY, USA). After centrifugation at 1500 rpm for 5 min, the cells were homogenized in a glass tissue homogenizer in ice-cold 50 mM Tris-HCl buffer (pH 7.4) with 5 mM MnCl2. The preparation was collected by centrifugation at 13,000 rpm for 25 min at 4 °C, and then the pellet was suspended in 50 mM Tris-HCl buffer. The homogenates were stored at −80 °C for later use. The BCA assay (Thermo Scientific, Waltham, MA, USA) was used to determine the protein concentration in the homogenates.
(§1) The binding affinity of the tested compounds for human and rat NK1R was determined in competitive radioligand binding assays following the method previously described. As a source of the receptor proteins, homogenates obtained from rat brains (obtained as described in Ref [30]) or homogenates made from hNK1-CHO cells were used. […] The final reaction volumes were 250 μL and 1 mL, for the human and rat NK1R determinations, respectively. […] The binding reaction mixtures were incubated in a shaking water bath at 25 °C for 60 min. The reaction was terminated by rapid filtration through Whatman GF/B filter (Gaithersburg, MD) presoaked in 0.5% polyethyleneimine and washed three times with 2 mL of cold saline. The filters were placed in 24-well plates and immersed in a Betaplate Scint scintillation solution (Perkin Elmer, Waltham, MA, USA). The filter-bound radioactivity was determined by scintillation counter MicroBeta LS, Trilux (PerkinElmer, Waltham, MA, USA).
(§2) The displacement curves were drawn and the mean IC50 values were determined with standard deviations (GraphPad Prism version 8.0, San Diego, CA, USA). At least three independent experiments (carried out in duplicate) were performed.

The next data set has as its target T2, rNK1R (Rattus norvegicus, UniProt P14600).
T2 construct: As a source of the receptor proteins, homogenates obtained from rat brains; from tissue; host or cells: rat brain homogenate
Kind of data set: Competitive radioligand binding assay, rat brain homogenates, [3H]-(Sar9,Met(O2)11)-Substance P. Conditions: mean of three independent experiments in duplicate unless stated; for IC50: read-out: IC50 (Mean ± SD) rNK1R. How it is done:
as §1, §2

Where [1] appears, read: pH 7.4, logD7.4 (Mean ± SD) 68Ga-.

T1 sequence (P25103 whole entry): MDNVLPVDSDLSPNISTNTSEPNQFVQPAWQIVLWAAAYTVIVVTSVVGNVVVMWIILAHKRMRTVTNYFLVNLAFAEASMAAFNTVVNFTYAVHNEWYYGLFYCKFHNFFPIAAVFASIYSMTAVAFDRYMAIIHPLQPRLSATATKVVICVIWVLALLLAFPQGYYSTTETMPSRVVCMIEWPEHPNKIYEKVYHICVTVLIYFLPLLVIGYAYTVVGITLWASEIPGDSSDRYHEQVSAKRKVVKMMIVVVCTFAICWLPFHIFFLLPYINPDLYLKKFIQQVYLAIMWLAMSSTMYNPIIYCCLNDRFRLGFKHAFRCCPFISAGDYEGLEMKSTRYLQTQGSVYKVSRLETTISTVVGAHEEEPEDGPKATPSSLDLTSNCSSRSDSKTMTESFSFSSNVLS
T2 sequence (P14600 whole entry): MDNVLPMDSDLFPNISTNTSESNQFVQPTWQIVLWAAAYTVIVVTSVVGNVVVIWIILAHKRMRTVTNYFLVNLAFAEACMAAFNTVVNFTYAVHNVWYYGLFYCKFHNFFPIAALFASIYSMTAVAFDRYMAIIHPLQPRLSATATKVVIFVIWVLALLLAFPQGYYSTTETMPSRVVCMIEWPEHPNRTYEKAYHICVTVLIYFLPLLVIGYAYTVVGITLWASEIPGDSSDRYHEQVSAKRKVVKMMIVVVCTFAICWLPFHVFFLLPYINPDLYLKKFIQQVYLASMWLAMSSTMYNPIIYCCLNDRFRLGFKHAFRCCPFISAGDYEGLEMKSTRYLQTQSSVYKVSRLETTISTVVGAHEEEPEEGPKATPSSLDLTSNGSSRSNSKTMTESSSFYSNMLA

The term logD denotes lipophilicity at a set pH, counting ionised and neutral species. A higher logD goes with a more lipophilic compound. For `C[C@@H](NC(=O)CN1CCN(CC(=O)O)CCN(CC(=O)O)CCN(CC(=O)O)CC1)C(=O)N[C@@H](Cc1c[nH]c2ccccc12)C(=O)OCc1cc(C(F)(F)F)cc(C(F)(F)F)c1` [[^68Ga]Ga-2d, metal not drawn], the logD in “physchem” (setting [1]) is -0.06 ± 0.02.
Broadly, the IC50 is the concentration that gives 50% inhibition. Take `CC(C)(C)OC(=O)NCCCCCC(=O)N[C@@H](Cc1c[nH]c2ccccc12)C(=O)OCc1cc(C(F)(F)F)cc(C(F)(F)F)c1` [Compound 4a, 3,5-bis(trifluoromethyl)benzyl (6-((tert-butoxycarbonyl)amino)hexanoyl)-L-tryptophanate]: the IC50 on hNK1R was determined as 0.0607 ± 0.0319 µM; at rNK1R it was 1.66 ± 1.05 µM.
In the case of `O=C(O)CN1CCN(CC(=O)O)CCN(CC(=O)NCCCCCC(=O)NCCCCCC(=O)N[C@@H](Cc2c[nH]c3ccccc23)C(=O)OCc2cc(C(F)(F)F)cc(C(F)(F)F)c2)CCN(CC(=O)O)CC1` [[^68Ga]Ga-5d, metal not drawn], the logD in “physchem” (setting [1]) is -0.466 ± 0.016.
Turning to `N[C@@H](Cc1c[nH]c2ccccc12)C(=O)OCc1cc(C(F)(F)F)cc(C(F)(F)F)c1.O=C(O)C(F)(F)F` [Compound 1b, (S)-1-((3,5-bis(trifluoromethyl)benzyl)oxy)-3-(1H-indol-3-yl)-1-oxopropan-2-aminium 2,2,2-trifluoroacetate], on hNK1R, the IC50 was 0.359 ± 0.132 µM and the “fold weaker hNK1R binding than parent compound” value is reported as 14 ×. Further, the IC50 on rNK1R is greater than 10 µM.
As for `C[C@@H](NC(=O)CN1CCN(CC(=O)O)CCN(CC(=O)O)CCN(CC(=O)O)CC1)C(=O)N[C@H](C)C(=O)N[C@@H](Cc1c[nH]c2ccccc12)C(=O)OCc1cc(C(F)(F)F)cc(C(F)(F)F)c1` [[^68Ga]Ga-3d, metal not drawn], the pH-dependent lipophilicity (logD) in “physchem” (setting [1]) was -0.259 ± 0.017.
On to `O=C(O)CN1CCN(CC(=O)O)CCN(CC(=O)NCCCCCC(=O)N[C@@H](Cc2c[nH]c3ccccc23)C(=O)OCc2cc(C(F)(F)F)cc(C(F)(F)F)c2)CCN(CC(=O)O)CC1` [[^177Lu]Lu-4d, metal not drawn], for which the logD in “physchem” (pH 7.4, logD7.4 (Mean ± SD) 177Lu-) stood at 0.866 ± 0.019.
Take `O=C(O)CN1CCN(CC(=O)O)CCN(CC(=O)N[C@@H](Cc2c[nH]c3ccccc23)C(=O)OCc2cc(C(F)(F)F)cc(C(F)(F)F)c2)CCN(CC(=O)O)CC1` [Ga-1d]: the figures for the IC50 on hNK1R and on rNK1R were 0.0051 ± 0.002 µM and 0.112 ± 0.003 µM, respectively.
The matching figures for `NCCCCCC(=O)N[C@@H](Cc1c[nH]c2ccccc12)C(=O)OCc1cc(C(F)(F)F)cc(C(F)(F)F)c1` [Compound 4b, (S)-6-((1-((3,5-bis(trifluoromethyl)benzyl)oxy)-3-(1H-indol-3-yl)-1-oxopropan-2-yl)amino)-6-oxohexan-1-aminium 2,2,2-trifluoroacetate]: 0.0354 ± 0.0236 µM and 1.4 ± 0.319 µM.
As for `C[C@@H](NC(=O)OC(C)(C)C)C(=O)N[C@@H](Cc1c[nH]c2ccccc12)C(=O)OCc1cc(C(F)(F)F)cc(C(F)(F)F)c1` [Compound 2a, 3,5-bis(trifluoromethyl)benzyl (tert-butoxycarbonyl)-D-alanyl-L-tryptophanate], the IC50 on hNK1R was 0.135 ± 0.108 µM; at rNK1R, 1.53 ± 0.279 µM.
Regarding `NCCCCCC(=O)NCCCCCC(=O)N[C@@H](Cc1c[nH]c2ccccc12)C(=O)OCc1cc(C(F)(F)F)cc(C(F)(F)F)c1.O=C(O)C(F)(F)F` [Compound 5b, (S)-6-((6-((1-((3,5-bis(trifluoromethyl)benzyl)oxy)-3-(1H-indol-3-yl)-1-oxopropan-2-yl)amino)-6-oxohexyl)amino)-6-oxohexan-1-aminium 2,2,2-trifluoroacetate], the IC50 at hNK1R was found to be 0.0204 ± 0.0102 µM; on rNK1R, 0.572 ± 0.041 µM. Besides, at rNK1R, the “IC50 (Mean ± SD) rNK1R” value is “submicromolar”.
As for `C[C@@H](N)C(=O)N[C@H](C)C(=O)N[C@@H](Cc1c[nH]c2ccccc12)C(=O)OCc1cc(C(F)(F)F)cc(C(F)(F)F)c1` [Compound 3b, (R)-1-(((R)-1-(((S)-1-((3,5-bis(trifluoromethyl)benzyl)oxy)-3-(1H-indol-3-yl)-1-oxopropan-2-yl)amino)-1-oxopropan-2-yl)amino)-1-oxopropan-2-aminium 2,2,2-trifluoroacetate], the values for the IC50 at hNK1R and at rNK1R were 0.0808 ± 0.0597 µM and 4.01 ± 1.37 µM, respectively.
With `C[C@@H](NC(=O)OC(C)(C)C)C(=O)N[C@H](C)C(=O)N[C@@H](Cc1c[nH]c2ccccc12)C(=O)OCc1cc(C(F)(F)F)cc(C(F)(F)F)c1` [Compound 3a, 3,5-bis(trifluoromethyl)benzyl (tert-butoxycarbonyl)-D-alanyl-D-alanyl-L-tryptophanate], the IC50 on hNK1R was determined as 0.0139 ± 0.0112 µM; at rNK1R, 0.745 ± 0.311 µM. Besides, on rNK1R, the “IC50 (Mean ± SD) rNK1R” value is “submicromolar”.
As for `C[C@@H](N)C(=O)N[C@@H](Cc1c[nH]c2ccccc12)C(=O)OCc1cc(C(F)(F)F)cc(C(F)(F)F)c1` [Compound 2b, (R)-1-(((S)-1-((3,5-bis(trifluoromethyl)benzyl)oxy)-3-(1H-indol-3-yl)-1-oxopropan-2-yl)amino)-1-oxopropan-2-aminium 2,2,2-trifluoroacetate], the IC50 worked out at 0.0254 ± 0.0125 µM on hNK1R and 4.68 ± 1.32 µM at rNK1R.
Turning to `CC(=O)N[C@H](C)C(=O)N[C@@H](Cc1c[nH]c2ccccc12)C(=O)OCc1cc(C(F)(F)F)cc(C(F)(F)F)c1` [Compound 2c, 3,5-bis(trifluoromethyl)benzyl acetyl-D-alanyl-L-tryptophanate], the IC50 at hNK1R came to 0.0253 ± 0.0004 µM; at rNK1R, 2.28 ± 0.703 µM.
For `CC(C)(C)OC(=O)N[C@@H](Cc1c[nH]c2ccccc12)C(=O)OCc1cc(C(F)(F)F)cc(C(F)(F)F)c1` [Compound 1a, 3,5-bis(trifluoromethyl)benzyl (tert-butoxycarbonyl)-L-tryptophanate], on hNK1R, the IC50 amounted to 0.18 ± 0.112 µM and the “fold weaker hNK1R binding than parent compound” value was found to be 7 ×. For the same compound, the IC50 at rNK1R is 2.93 ± 1.52 µM.
`CC(=O)NCCCCCC(=O)N[C@@H](Cc1c[nH]c2ccccc12)C(=O)OCc1cc(C(F)(F)F)cc(C(F)(F)F)c1` [Compound 4c, 3,5-bis(trifluoromethyl)benzyl (6-acetamidohexanoyl)-L-tryptophanate]: the IC50 on hNK1R was 0.0831 ± 0.0693 µM; at rNK1R, 1.95 ± 0.641 µM.
With `CC(=O)N[C@H](C)C(=O)N[C@H](C)C(=O)N[C@@H](Cc1c[nH]c2ccccc12)C(=O)OCc1cc(C(F)(F)F)cc(C(F)(F)F)c1` [Compound 3c, 3,5-bis(trifluoromethyl)benzyl acetyl-D-alanyl-D-alanyl-L-tryptophanate], the IC50 on hNK1R worked out at 0.0135 ± 0.0121 µM; at rNK1R, 1.14 ± 0.289 µM.
For `O=C(O)CN1CCN(CC(=O)O)CCN(CC(=O)NCCCCCC(=O)N[C@@H](Cc2c[nH]c3ccccc23)C(=O)OCc2cc(C(F)(F)F)cc(C(F)(F)F)c2)CCN(CC(=O)O)CC1` [Compound 4d], the IC50 at hNK1R was 0.0087 ± 0.0032 µM.
On to `CC(C)(C)OC(=O)NCCCCCC(=O)NCCCCCC(=O)N[C@@H](Cc1c[nH]c2ccccc12)C(=O)OCc1cc(C(F)(F)F)cc(C(F)(F)F)c1` [Compound 5a, 3,5-bis(trifluoromethyl)benzyl (6-(6-((tert-butoxycarbonyl)amino)hexanamido)hexanoyl)-L-tryptophanate], for which, on hNK1R, the IC50 came out at 0.0045 ± 0.0028 µM. In addition, on rNK1R, the “IC50 (Mean ± SD) rNK1R” value was “submicromolar” and the IC50 came to 0.762 ± 0.295 µM.
As to `CC(=O)NCCCCCC(=O)NCCCCCC(=O)N[C@@H](Cc1c[nH]c2ccccc12)C(=O)OCc1cc(C(F)(F)F)cc(C(F)(F)F)c1` [Compound 5c, 3,5-bis(trifluoromethyl)benzyl (6-(6-acetamidohexanamido)hexanoyl)-L-tryptophanate], the IC50 on hNK1R was 0.0143 ± 0.0052 µM; at rNK1R it was 0.655 ± 0.12 µM. Further, the “IC50 (Mean ± SD) rNK1R” value at rNK1R is given as “submicromolar”.
